Measurements: patent US20020137929A1, “1 - (3-heterocyclylphenyl) isothiourea, -isourea, -guanidine and -amidine herbicidal agents” (Intellectual Property Department, BASF Aktiengesellschaft, priority 1998, published 2002)

Tests used:
[1] = system: ABUTH (Velvetleaf); test: Postemergence herbicidal evaluation; assay type: in vivo, Abutilon theophrasti; details: postemergence
Procedure, shortened: (§1)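 Herbicidal effect was judged by eye on a 0–9 scale covering stand, vigor, deformity, size and chlorosis, compared with controls, four to five weeks after seedlings about two weeks old were sprayed (40 psi, ~0.0156–0.500 kg/ha).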

[2] = system: CYPSE (Flatsedge); test: Preemergence weed control under flooded paddy conditions; assay type: in vivo, Cyperus serotinus; details: rated 3-4 weeks after treatment
Procedure, shortened: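 Seeds or propagules sown in silt loam kept flooded 1.5-3 cm; compounds in 50/50 acetone/water pipetted into flood water at about 0.0313 to 0.500 kg/ha. Greenhouse; visual 0-9 rating versus untreated control 3-4 weeks after treatment.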

[3] = system: CYPIR (Rice Flatsedge); test: Postemergence weed control under flooded paddy conditions; assay type: in vivo, Cyperus iria; details: postemergence weeds, rated 3 to 4 weeks after treatment
Procedure, shortened: (§2)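 Flood-water application, about 0.0313–0.500 kg/ha a.i. in aqueous/acetone 50/50 v/v; water depth 1.5–3 cm throughout. Weeds 3–5 cm, rice 1.5–2.5 leaf. Greenhouse; 0–9 visual rating vs control at 3–4 wk.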

[4] = system: GLXMAW (Soybean, Williams); test: Postemergence herbicidal evaluation; assay type: in vivo, Glycine max, (L.) Merr. cv Williams; details: postemergence
Procedure, shortened: as §1

[5] = system: ABUTH (Velvetleaf); test: Preemergence herbicidal evaluation; assay type: in vivo, Abutilon theophrasti; details: preemergence, rated 4-5 weeks after treatment, 0-9 scale
Procedure, shortened: (§3)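 Each species is sown separately in potting soil over roughly an inch of soil before any emergence. The soil surface then receives an aqueous acetone spray delivering about 0.0156 to 0.500 kg/ha of compound. After four to five weeks, injury is scored from 0 to 9 relative to a control.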

[6] = system: CASOB (Sicklepod); test: Preemergence herbicidal evaluation; assay type: in vivo, Cassia obtusifolia; details: preemergence, rated 4-5 weeks after treatment, 0-9 scale
Procedure, shortened: as §3

[7] = system: AMBEL (Ragweed, Common); test: Preemergence herbicidal evaluation; assay type: in vivo, Ambrosia artemisifolia; details: preemergence, rated 4-5 weeks after treatment, 0-9 scale
Procedure, shortened: as §3

[8] = system: ECHCG (Barnyardgrass); test: Preemergence herbicidal evaluation; assay type: in vivo, Echinochloa crus-galli; details: preemergence, rated 4-5 weeks after treatment, 0-9 scale
Procedure, shortened: as §3

[9] = system: ECHORC (Watergrass (Calif.)); test: Preemergence weed control under flooded paddy conditions; assay type: in vivo, Echinochloa oryzoides; details: rated 3-4 weeks after treatment
Procedure, shortened: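 Visual injury scored 0-9 against control three to four weeks post-treatment, greenhouse-grown. Application: acetone/water (50/50) solutions dosed directly into flood water (1.5-3 cm over silt loam, planted top 0.5 cm), roughly 0.0313 to 0.500 kg/ha active ingredient.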

[10] = system: IPOHE (Morningglory, Ivyleaf); test: Postemergence herbicidal evaluation; assay type: in vivo, Ipomoea hederacea; details: postemergence
Procedure, shortened: as §1

[11] = system: IPOHE (Morningglory, Ivyleaf); test: Preemergence herbicidal evaluation; assay type: in vivo, Ipomoea hederacea; details: preemergence, rated 4-5 weeks after treatment, 0-9 scale
Procedure, shortened: as §3

[12] = system: ECHORC (Watergrass (Calif.)); test: Postemergence weed control under flooded paddy conditions; assay type: in vivo, Echinochloa oryzoides; details: postemergence weeds, rated 3 to 4 weeks after treatment
Procedure, shortened: as §2

[13] = system: SETVI (Foxtail, Green); test: Postemergence herbicidal evaluation; assay type: in vivo, Setaria viridis; details: postemergence
Procedure, shortened: as §1

[14] = system: ZEAMX (Corn, Field); test: Postemergence herbicidal evaluation; assay type: in vivo, Zea mays; details: postemergence
Procedure, shortened: as §1

**Q.** Which ABUTH herbicidal rating ([1]; rate 0.0156 kg/ha) does the source give for `CCOC(=O)CN1C(=O)C(CC(=O)NO)S/C1=N/c1cc(-n2c(=O)cc(C(F)(F)F)n(C)c2=O)c(F)cc1Cl` (stereo not drawn) [Compound 98, Ethyl 2-{{2-chloro-5-[3,6-dihydro-3-methyl-2,6-dioxo-4-(trifluoromethyl)-1(2H)-pyrimidinyl]-4-fluorophenyl}imino}-5-[(hydroxycarbamoyl)methyl]-4-oxo-3-thiazolidineacetate] here?
**A.** 2.0

**Q.** And the ABUTH herbicidal rating ([1]; rate 0.0313 kg/ha)?
**A.** 7.0

**Q.** And the ABUTH herbicidal rating ([1]; rate 0.0625 kg/ha)?
**A.** 9.0

**Q.** What about the ABUTH herbicidal rating ([1]; rate 0.1250 kg/ha) of the same compound?
**A.** 9.0

**Q.** And the “CYPSE herbicidal effect rating” value ([2]; 0.0313 kg/ha)?
**A.** 2.0

**Q.** And the “CYPSE herbicidal effect rating” value ([2]; 0.0625 kg/ha)?
**A.** 3.0

**Q.** And the “CYPSE herbicidal effect rating” value ([2]; 0.1250 kg/ha)?
**A.** 4.0

**Q.** And the “CYPSE herbicidal effect rating” value ([2]; 0.2500 kg/ha)?
**A.** 4.0

**Q.** And the “Herbicidal rating CYPIR” value ([3]; Rate 0.0313 kg/ha)?
**A.** 9.0

**Q.** What about the “Herbicidal rating CYPIR” value ([3]; Rate 0.0625 kg/ha) of the same compound?
**A.** 9.0

**Q.** What about the “Herbicidal rating CYPIR” value ([3]; Rate 0.1250 kg/ha) of the same compound?
**A.** 9.0

**Q.** And the “Herbicidal rating CYPIR” value ([3]; Rate 0.2500 kg/ha)?
**A.** 9.0

**Q.** And the GLXMAW herbicidal rating ([4]; rate 0.0156 kg/ha)?
**A.** 4.5

**Q.** What about the GLXMAW herbicidal rating ([4]; rate 0.0313 kg/ha) of the same compound?
**A.** 4.5

**Q.** And the GLXMAW herbicidal rating ([4]; rate 0.0625 kg/ha)?
**A.** 5.5

**Q.** And the GLXMAW herbicidal rating ([4]; rate 0.1250 kg/ha)?
**A.** 5.5

**Q.** And the ABUTH rating ([5]; 0.0156 kg/ha)?
**A.** 0.0

**Q.** And the ABUTH rating ([5]; 0.0313 kg/ha)?
**A.** 0.0

**Q.** What about the ABUTH rating ([5]; 0.0625 kg/ha) of the same compound?
**A.** 2.0

**Q.** What about the ABUTH rating ([5]; 0.1250 kg/ha) of the same compound?
**A.** 6.0

**Q.** And the ABUTH rating ([5]; 0.2500 kg/ha)?
**A.** 6.0

**Q.** And the ABUTH rating ([5]; 0.5000 kg/ha)?
**A.** 9.0

**Q.** What about the CASOB rating ([6]; 0.0156 kg/ha) of the same compound?
**A.** 0.0

**Q.** What about the CASOB rating ([6]; 0.0313 kg/ha) of the same compound?
**A.** 0.0

**Q.** And the CASOB rating ([6]; 0.0625 kg/ha)?
**A.** 0.0

**Q.** And the CASOB rating ([6]; 0.1250 kg/ha)?
**A.** 1.0

**Q.** And the CASOB rating ([6]; 0.2500 kg/ha)?
**A.** 2.0

**Q.** And the CASOB rating ([6]; 0.5000 kg/ha)?
**A.** 7.0

**Q.** And the AMBEL rating ([7]; 0.0156 kg/ha)?
**A.** 0.0

**Q.** And the AMBEL rating ([7]; 0.0313 kg/ha)?
**A.** 0.0

**Q.** What about the AMBEL rating ([7]; 0.0625 kg/ha) of the same compound?
**A.** 2.0

**Q.** What about the AMBEL rating ([7]; 0.1250 kg/ha) of the same compound?
**A.** 3.0

**Q.** And the AMBEL rating ([7]; 0.2500 kg/ha)?
**A.** 5.0

**Q.** And the AMBEL rating ([7]; 0.5000 kg/ha)?
**A.** 7.0

**Q.** And the ECHCG rating ([8]; 0.0156 kg/ha)?
**A.** 0.0

**Q.** And the ECHCG rating ([8]; 0.0313 kg/ha)?
**A.** 0.0

**Q.** What about the ECHCG rating ([8]; 0.0625 kg/ha) of the same compound?
**A.** 0.0

**Q.** What about the ECHCG rating ([8]; 0.1250 kg/ha) of the same compound?
**A.** 1.0

**Q.** What about the ECHCG rating ([8]; 0.2500 kg/ha) of the same compound?
**A.** 1.0

**Q.** What about the ECHCG rating ([8]; 0.5000 kg/ha) of the same compound?
**A.** 2.0

**Q.** What about the “ECHORC herbicidal effect rating” value ([9]; 0.0313 kg/ha) of the same compound?
**A.** 0.0

**Q.** And the “ECHORC herbicidal effect rating” value ([9]; 0.0625 kg/ha)?
**A.** 0.0

**Q.** And the “ECHORC herbicidal effect rating” value ([9]; 0.1250 kg/ha)?
**A.** 1.0

**Q.** And the “ECHORC herbicidal effect rating” value ([9]; 0.2500 kg/ha)?
**A.** 3.0

**Q.** And the IPOHE herbicidal rating ([10]; rate 0.0156 kg/ha)?
**A.** 3.0

**Q.** What about the IPOHE herbicidal rating ([10]; rate 0.0313 kg/ha) of the same compound?
**A.** 3.0

**Q.** And the IPOHE herbicidal rating ([10]; rate 0.0625 kg/ha)?
**A.** 9.0

**Q.** And the IPOHE herbicidal rating ([10]; rate 0.1250 kg/ha)?
**A.** 9.0

**Q.** And the IPOHE rating ([11]; 0.0156 kg/ha)?
**A.** 0.0

**Q.** What about the IPOHE rating ([11]; 0.0313 kg/ha) of the same compound?
**A.** 0.0

**Q.** And the IPOHE rating ([11]; 0.0625 kg/ha)?
**A.** 1.0

**Q.** What about the IPOHE rating ([11]; 0.1250 kg/ha) of the same compound?
**A.** 3.0

**Q.** And the IPOHE rating ([11]; 0.2500 kg/ha)?
**A.** 4.0

**Q.** What about the IPOHE rating ([11]; 0.5000 kg/ha) of the same compound?
**A.** 9.0

**Q.** What about the “Herbicidal rating ECHORC” value ([12]; Rate 0.0313 kg/ha) of the same compound?
**A.** 0.0

**Q.** What about the “Herbicidal rating ECHORC” value ([12]; Rate 0.0625 kg/ha) of the same compound?
**A.** 0.0

**Q.** And the “Herbicidal rating ECHORC” value ([12]; Rate 0.1250 kg/ha)?
**A.** 1.0

**Q.** And the “Herbicidal rating ECHORC” value ([12]; Rate 0.2500 kg/ha)?
**A.** 3.0

**Q.** What about the SETVI herbicidal rating ([13]; rate 0.0156 kg/ha) of the same compound?
**A.** 1.0

**Q.** And the SETVI herbicidal rating ([13]; rate 0.0313 kg/ha)?
**A.** 0.0

**Q.** And the SETVI herbicidal rating ([13]; rate 0.0625 kg/ha)?
**A.** 1.0

**Q.** And the SETVI herbicidal rating ([13]; rate 0.1250 kg/ha)?
**A.** 2.0

**Q.** What about the ZEAMX herbicidal rating ([14]; rate 0.0156 kg/ha) of the same compound?
**A.** 3.0

**Q.** What about the ZEAMX herbicidal rating ([14]; rate 0.0313 kg/ha) of the same compound?
**A.** 4.0

**Q.** And the ZEAMX herbicidal rating ([14]; rate 0.0625 kg/ha)?
**A.** 4.0

**Q.** And the ZEAMX herbicidal rating ([14]; rate 0.1250 kg/ha)?
**A.** 5.0
